Experimental data published in patent US20080269114A1, “Y4 Selective Receptor Agonists For Thereapeutic Interventions” (priority 2004, published 2008).

How the values were obtained:
food intake = assay: Effect of Y4 selective agonists on acute food intake in mice; type: in vivo, mice (ddy strain)
Procedure: . In FIG. 2 is shown the accumulated food intake of the mice during 8 hours. […] The 50% suppressive effect on food intake was observed also when this was measured during the first full hour.
Effect of Y4 Selective Agonists on Acute Food Intake in Mice
The ddy strain of mice were used, 34-37 g and 8-9 weeks of age (Japan SLC, Shizuuoka, Japan). The mice were individually house in a regulated environment (22 C, 55% humidity) in a 12-hour light-dark cycle with light on at 7 AM. Food and water were available ad libitum except just before experiments (see below). The mice were acclimatized to subcutaneous injections during the week before experiments started. Mice were used once each in the experiments. Just before administration the peptides were diluted in physiological saline and administered in 100 μL volume for subcutaneous administration. Results are expressed as mean±SE. Analysis of variance followed by Bonferroni's test were used to assess differences among groups.
Mice were deprived of food but with free access to water for 16 hours prior to the actual test and experiments were started at 10 AM on the following day. A standard diet was used (CLEA Japan, Inc., Tokyo, Japan) and food intake was measured by subtracting uneaten food from the initially premeausured food after administration and checking for food spillage.

human Y1 receptor = target: T1, human Y1 receptor (Homo sapiens, UniProt P25929); assay: Human Y1 receptor potency assay (inositol phosphate turnover, COS-7 cells); type: cell-based; settings: relative to PP
T1 construct: expressed in transfected cells; host or cells: COS-7
T1 sequence (P25929 1-384): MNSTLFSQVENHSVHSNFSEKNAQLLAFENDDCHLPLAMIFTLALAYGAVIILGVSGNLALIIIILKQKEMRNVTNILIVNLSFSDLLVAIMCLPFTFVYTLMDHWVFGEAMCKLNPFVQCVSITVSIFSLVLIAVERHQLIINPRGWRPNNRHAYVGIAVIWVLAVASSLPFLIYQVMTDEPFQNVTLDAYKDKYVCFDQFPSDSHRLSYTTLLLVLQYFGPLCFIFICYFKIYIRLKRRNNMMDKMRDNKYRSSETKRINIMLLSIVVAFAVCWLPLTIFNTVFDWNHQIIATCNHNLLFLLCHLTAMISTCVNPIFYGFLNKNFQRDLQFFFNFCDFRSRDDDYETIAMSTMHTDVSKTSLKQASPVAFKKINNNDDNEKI
Procedure: Potency of the test compounds on the human Y2 receptor is determined by performing dose-response experiments in COS-7 cells transiently transfected with the human Y2 receptor as well as a promiscuous G protein, Gqi5 which ensures that the Y2 receptor couples through a Gq pathway leading to an increase in inositol phosphate turnover.
(§1) Cells are washed twice in buffer, 20 mM HEPES, pH 7.4, supplemented with 140 mM NaCl, 5 mM KCl, 1 mM MgSO4, 1 mM CaCl2, 10 mM glucose, 0.05% (w/v) bovine serum; and are incubated in 0.5 ml buffer supplemented with 10 mM LiCl at 37 C for 30 min. After stimulation with various concentrations of peptide for 45 min at 37 C, cells are extracted with 10% ice-cold perchloric acid followed by incubation on ice for 30 min. The resulting supernatants are neutralized with KOH in HEPES buffer, and the generated [3H]-inositol phosphate are purified on Bio-Rad AG 1-X8 anion-exchange resin and counted in a beta counter. Determinations are made in duplicates. EC50 values were calculated using a standard pharmacological data handling software, Prism 3.0 (graphPad Sofware, San Diego, USA).
Protocol as for the Y2 potency assay, except that human Y1-transformed COS-7 cells are used.

human Y4 receptor = target: T2, human Y4 receptor (Homo sapiens, UniProt P50391); assay: Human Y4 receptor potency assay (inositol phosphate turnover, COS-7 cells); type: cell-based; settings: relative to PP
T2 construct: expressed in transfected cells; host or cells: COS-7
T2 sequence (P50391 whole entry): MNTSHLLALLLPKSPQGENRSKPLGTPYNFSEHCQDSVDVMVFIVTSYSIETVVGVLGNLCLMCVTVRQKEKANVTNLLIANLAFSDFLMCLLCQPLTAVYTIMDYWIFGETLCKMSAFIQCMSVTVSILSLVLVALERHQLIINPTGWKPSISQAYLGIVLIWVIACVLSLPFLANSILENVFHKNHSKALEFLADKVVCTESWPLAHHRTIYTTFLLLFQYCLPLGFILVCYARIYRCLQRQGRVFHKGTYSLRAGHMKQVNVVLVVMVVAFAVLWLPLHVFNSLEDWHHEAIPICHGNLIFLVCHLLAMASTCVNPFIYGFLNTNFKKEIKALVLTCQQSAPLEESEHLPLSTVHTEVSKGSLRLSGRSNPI
Procedure: as §1, with “After” for “Cells are washed twice in buffer, 20 mM HEPES, pH 7.4, supplemented with 140 mM NaCl, 5 mM KCl, 1 mM MgSO4, 1 mM CaCl2, 10 mM glucose, 0.05% (w/v) bovine serum; and are incubated in 0.5 ml buffer supplemented with 10 mM LiCl at 37 C for 30 min. After”

potency on the Y1 receptor lower than that of PP (human Y1 receptor)	potency on the Y4 receptor lower than that of PP (human Y4 receptor) [fold]	Structure (SMILES)	period for which the suppressive effect on food intake was sustained (food intake; after the single subcutaneous injection) [h]	suppressive effect on food intake (food intake; first full hour, single subcutaneous injection, 16 hours fasted mice) [%]
3-4 fold		CC[C@H](C)[C@H](NC(=O)[C@H](Cc1ccc(O)cc1)NC(=O)[C@H](CCCNC(=N)N)NC(=O)[C@H](CCCNC(=N)N)NC(=O)[C@H](CC(C)C)NC(=O)[C@H](CC(=O)O)NC(=O)[C@H](C)NC(=O)[C@H](C)NC(=O)[C@H](Cc1ccc(O)cc1)NC(=O)[C@H](CCC(N)=O)NC(=O)[C@H](C)NC(=O)[C@H](CCSC)NC(=O)[C@H](CCC(N)=O)NC(=O)[C@H](CCC(=O)O)NC(=O)[C@@H]1CCCN1C(=O)[C@@H](NC(=O)[C@H](C)NC(=O)[C@H](CC(N)=O)NC(=O)[C@H](CC(=O)O)NC(=O)CNC(=O)[C@@H]1CCCN1C(=O)[C@H](Cc1ccc(O)cc1)NC(=O)[C@@H](NC(=O)[C@@H]1CCCN1C(=O)[C@H](CCC(=O)O)NC(=O)[C@H](CC(C)C)NC(=O)[C@@H]1CCCN1)C(C)C)[C@@H](C)O)C(=O)N[C@@H](CC(N)=O)C(=O)N[C@@H](CCSC)C(=O)N[C@@H](CC(C)C)C(=O)N[C@H](C(=O)N[C@@H](CCCNC(=N)N)C(=O)N1CCC[C@H]1C(=O)N[C@@H](CCCNC(=N)N)C(=O)N[C@@H](Cc1ccc(O)cc1)C(N)=O)[C@@H](C)O [PP2-36]	8	50
	7	CC[C@H](C)[C@H](NC(=O)[C@H]1CSSC[C@H](NC(=O)[C@H](C)N)C(=O)N[C@@H](CC(C)C)C(=O)N[C@@H](CCC(=O)O)C(=O)N2CCC[C@H]2C(=O)N[C@@H](C(C)C)C(=O)N[C@@H](Cc2ccc(O)cc2)C(=O)N2CCC[C@H]2C(=O)NCC(=O)N[C@@H](CC(=O)O)C(=O)N[C@@H](CC(N)=O)C(=O)N[C@@H](C)C(=O)N[C@@H]([C@@H](C)O)C(=O)N2CCC[C@H]2C(=O)N[C@@H](CCC(=O)O)C(=O)N[C@@H](CCC(N)=O)C(=O)N[C@@H](CCSC)C(=O)N[C@@H](C)C(=O)N[C@@H](CCC(N)=O)C(=O)N[C@@H](Cc2ccc(O)cc2)C(=O)N[C@@H](C)C(=O)N[C@@H](C)C(=O)N[C@@H](CC(=O)O)C(=O)N[C@@H](CC(C)C)C(=O)N[C@@H](CCCNC(=N)N)C(=O)N[C@@H](CCCNC(=N)N)C(=O)N1)C(=O)N[C@@H](CC(N)=O)C(=O)N[C@@H](CCSC)C(=O)N[C@@H](CC(C)C)C(=O)N[C@H](C(=O)N[C@@H](CCCNC(=N)N)C(=O)N1CCC[C@H]1C(=O)N[C@@H](CCCNC(=N)N)C(=O)N[C@@H](Cc1ccc(O)cc1)C(N)=O)[C@@H](C)O [[Cys2,D-Cys27]PP]		
